This experiment is described as follows: viability loss in fusion assay cells – cell-based, MAGI and MAGI-HeLa co-culture, cytotoxicity control for HIV-1 fusion inhibitor project, dose response (AID 2286).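 As to all read-outs here: cells exposed to compound for at least 64 h before ATP readout; 100% = median of DMSO vehicle wells with no ATP signal meaning 0%.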 The following applies: MAGI-CCR5 cells viability, CellTiter-Glo ATP luminescence; for minimum viability: measured here: MAGI minimum viability across doses. (In ATP-based viability assays light output follows the ATP content of the culture.)

Where [1] appears, read: MAGI-HeLa co-culture viability, at 50 µM, stronger effect = lower value.
The mark [2] stands for this setting: at 6.25 µM, stronger effect = lower value.
The mark [3] stands for this setting: at 12.5 µM, stronger effect = lower value.
The mark [4] stands for this setting: at 1.56 µM, stronger effect = lower value.

Active and inactive are the calls of the source.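 The calls were made as follows: active = minimum cell viability of 80% or lower across the dose range, counted as toxic; inactive = minimum cell viability above 80%.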

The term viability denotes a read-out of living cells in per cent, often relative to untreated cells. For `CCOc1cc(Br)cc(C(c2c(C(=O)O)[nH]c3ccccc23)c2c(C(=O)O)[nH]c3ccccc23)c1O`, the viability under setting [1] came out at 100% and the viability (at 50 µM (top of the series)) was 87% (inactive). Moreover, the minimum viability under setting [2] came to 82.9%.
As to `Cc1c(CCC(=O)O)c(=O)oc2c(C)c3occ(-c4ccc(Br)cc4)c3cc12`, the viability under setting [1] came out at 97.7%. Moreover, the minimum viability under setting [3] was determined as 72.5%.
Turning to `COc1ccc(N=C2S/C(=C\c3ccc(OC(C)C(=O)O)c(OC)c3)C(=O)N2CCc2c[nH]c3ccccc23)cc1` (stereo unspecified), the viability under setting [1] was found to be 148%. Besides, for the setting “at 50 µM, stronger effect = lower value”, the minimum viability came to 70.5%.
Turning to `O=C1NN(c2ccc(Cl)c(Cl)c2)C(=O)/C1=C/c1cccc(OC(=O)c2cccs2)c1`, the viability under setting [1] amounted to 111% and the viability (at 50 µM (top of the series)) was 90.3% (inactive). Moreover, the minimum viability (at 25 µM, stronger effect = lower value) worked out at 86.1%.
Turning to `CS(=O)(=O)C1=NSC2=NC(=O)/C(=C\c3ccc(OC(=O)c4ccco4)c(Br)c3)C(=N)N21`, the viability is, setting by setting: under setting [1], 106%; (at 50 µM (top of the series)) 94.8% (inactive). For the same molecule, for the setting “at 50 µM, stronger effect = lower value”, the minimum viability was found to be 94.8%.
For the molecule `Cc1noc(NS(=O)(=O)c2ccc(NC(=O)Nc3ccc(Cl)c(Cl)c3)cc2)c1C`, the viability is, setting by setting: under setting [1], 120%; (at 50 µM (top of the series)) 95.5% (inactive). Further, the minimum viability under setting [3] was 93%.
In the case of `O=C(O)c1cc(NC(=O)c2ccc(Br)cc2)cc(NC(=O)c2ccc(Br)cc2)c1`, the viability under setting [1] amounted to 118% and the viability (at 50 µM (top of the series)) is 103% (inactive). Further, the minimum viability (at 3.13 µM, stronger effect = lower value) stood at 99.1%.
In the case of `O=C(O)c1ccccc1N=Nc1c(O)[nH]c2ccc([N+](=O)[O-])cc12`, the viability is 87.3% under setting [1] and 90.2% (inactive) (at 50 µM (top of the series)). Besides, the minimum viability (at 50 µM, stronger effect = lower value) worked out at 90.2%.
Turning to `COc1cc(/C=C2\C(=N)N3N=C(S(C)(=O)=O)SC3=NC2=O)ccc1OS(=O)(=O)c1ccccc1`, the viability runs as follows: under setting [1], 113%; (at 50 µM (top of the series)) 91.8% (inactive). For the same molecule, under “at 50 µM, stronger effect = lower value”, the minimum viability came to 91.8%.
For `Cc1ccc(S(=O)(=O)/N=C2/NC(=O)/C(=C/c3cc([N+](=O)[O-])ccc3O)S2)cc1`, the viability runs as follows: under setting [1], 99.3%; (at 50 µM (top of the series)) 86% (inactive). In addition, the minimum viability (at 50 µM, stronger effect = lower value) was found to be 86%.
As to `COc1cc(/C=C2\SC(=O)N(c3ccccc3Cl)C2=O)cc([N+](=O)[O-])c1O`, under setting [1], the viability stood at 85.2%. Besides, where the note is “at 50 µM, stronger effect = lower value”, the minimum viability turned out to be 50%.
`Cc1cc(Cl)ccc1OC(C)C(=O)Nc1ccc(S(=O)(=O)Nc2cnc3ccccc3n2)cc1` (stereo unspecified): the viability under setting [1] is 89.2%. Besides, under “at 50 µM, stronger effect = lower value”, the minimum viability was 72.9%.
Take `Cc1ccc(N2C(=O)/C(=C/c3ccc(CN(CCC#N)S(C)(=O)=O)o3)C(=O)NC2=S)cc1C`: the viability runs as follows: under setting [1], 98.6%; (at 50 µM (top of the series)) 89.2% (inactive). Under setting [3], the minimum viability was determined as 84.4%.
For `COc1cc(/C=C2/SC(=S)N(CC(=O)O)C2=O)ccc1OCC(=O)Nc1ccc(C)c(C)c1`, the viability under setting [1] was 107% and the viability (at 50 µM (top of the series)) was 103% (inactive). For the setting “at 0.2 µM, stronger effect = lower value”, the minimum viability was 98.9%.
For the molecule `CCCCCc1c2c(cc(O)c1C(=O)O)OC(=O)c1c(cc(OC)cc1C(=O)CCCC)O2`, the viability under setting [1] was found to be 82% and the viability (at 50 µM (top of the series)) was 84.4% (inactive). Besides, the minimum viability (at 50 µM, stronger effect = lower value) was 84.4%.
The matching figures for `COc1cccc(-c2nc(SCC(=O)Nc3nc(-c4ccccc4)c(C)s3)[nH]c(=O)c2C#N)c1`: 116%, 87.6% (inactive) and 87.6%.
For the molecule `CCOc1cc(/C=C2/C(=N)N3C(=NC2=O)SN=C3S(=O)(=O)C(C)C)ccc1OC(=O)c1ccco1`, the viability under setting [1] was found to be 103% and the viability (at 50 µM (top of the series)) was 91.5% (inactive). Moreover, the minimum viability under setting [3] worked out at 86.8%.
Regarding `CCOC(=O)C1=C(C)N=c2s/c(=C\c3ccc(OCC(=O)O)cc3)c(=O)n2C1c1ccc(OC(C)C)cc1` (stereo unspecified), under setting [1], the viability stood at 105%. In addition, the minimum viability (at 50 µM, stronger effect = lower value) is 65.8%.
In the case of `O=C1NC(=O)/C(=C/c2ccc(-c3cc(C(=O)O)ccc3Cl)o2)S1`, the viability is 105% under setting [1] and 91% (inactive) (at 50 µM (top of the series)). Moreover, the minimum viability under setting [2] stood at 88.5%.
Take `CCOC(=O)c1sc(N2C(=O)C(O)=C(C(=O)c3ccco3)C2c2cccc([N+](=O)[O-])c2)nc1C` (stereo unspecified): the viability runs as follows: under setting [1], 110%; (at 50 µM (top of the series)) 83.5% (inactive). Also, the minimum viability (at 50 µM, stronger effect = lower value) was determined as 83.5%.
In the case of `O=C(COc1ccc(Cl)cc1)Nc1cc(NC(=O)COc2ccc(Cl)cc2)cc(C(=O)O)c1`, the viability reads like this: under setting [1], 99.5%; (at 50 µM (top of the series)) 105% (inactive). Also, the minimum viability under setting [3] was 98.6%.
`CCc1ccc(N=C2NC(=O)/C(=C/c3cc(Br)c(OCC(=O)O)c(OC)c3)S2)cc1`: the viability is 94.3% under setting [1] and 82.9% (inactive) (at 50 µM (top of the series)). In addition, under “at 50 µM, stronger effect = lower value”, the minimum viability turned out to be 82.9%.
Turning to `O=C(O)COc1ccccc1/C=N/NC(=O)CSc1nnc(SCc2cccc3ccccc23)s1`, the viability by setting is: under setting [1], 106%; (at 50 µM (top of the series)) 92.5% (inactive). Moreover, under setting [2], the minimum viability amounted to 86.9%.
As to `COc1ccc(/C=N/NC(=O)c2[nH]c3ccc(Br)cc3c2-c2ccccc2)c(C(=O)O)c1OC`, the viability was 95% under setting [1] and 90.4% (inactive) (at 50 µM (top of the series)). Further, the minimum viability (at 50 µM, stronger effect = lower value) stood at 90.4%.
`CC1=C(C#N)C(=O)NC(=O)/C1=C\c1ccc(-c2cc(C)c(C)cc2[N+](=O)[O-])o1`: the viability was 107% under setting [1] and 86.5% (inactive) (at 50 µM (top of the series)). Besides, the minimum viability under setting [3] is 83.3%.
For the molecule `COc1cc(/C=C2/C(=O)NN(c3ccc(C)c(Cl)c3)C2=O)cc([N+](=O)[O-])c1O`, the viability was 103% under setting [1] and 107% (inactive) (at 50 µM (top of the series)). For the same molecule, the minimum viability under setting [4] amounted to 91.2%.
With `CC(C)c1ccc(OCC(=O)Nc2cccc(C(=O)Nc3ccccc3C(=O)O)c2)cc1`, the viability is, setting by setting: under setting [1], 96.4%; (at 50 µM (top of the series)) 84% (inactive). Also, the minimum viability (at 50 µM, stronger effect = lower value) worked out at 84%.
For `Cc1cc(/C=C2\C(=N)N3N=C(S(C)(=O)=O)SC3=NC2=O)c(C)n1Cc1ccccc1`, the viability was 116% under setting [1] and 110% (inactive) (at 50 µM (top of the series)). In addition, the minimum viability (at 25 µM, stronger effect = lower value) came to 106%.
Take `COc1cc(Cl)cc(C(c2c(C(=O)O)[nH]c3ccccc23)c2c(C(=O)O)[nH]c3ccccc23)c1O`: the viability was 100% under setting [1] and 80.5% (inactive) (at 25 µM (top of the series)). Also, the minimum viability (at 25 µM, stronger effect = lower value) was 80.5%.
As for `CCOc1ccc2nc(NC(=O)CSc3nc(-c4ccccc4)c(C#N)c(=O)[nH]3)sc2c1`, the viability reads like this: under setting [1], 125%; (at 50 µM (top of the series)) 105% (inactive). In addition, the minimum viability (at 0.78 µM, stronger effect = lower value) was determined as 92.7%.
Turning to `O=C(O)CCN1C(=O)/C(=C\c2cccc(Oc3ccccc3)c2)SC1=S`, the viability runs as follows: under setting [1], 90.5%; (at 50 µM (top of the series)) 87.3% (inactive). The minimum viability (at 25 µM, stronger effect = lower value) amounted to 86.3%.
For the molecule `Cc1ccc(-c2nn(-c3ccccc3)cc2/C=C2\SC(=S)N(CC(=O)O)C2=O)cc1`, the viability is, setting by setting: under setting [1], 92.3%; (at 50 µM (top of the series)) 81.7% (inactive). Moreover, the minimum viability (at 25 µM, stronger effect = lower value) was determined as 80.9%.
On to `CCOC(=O)C1=C(C)N=c2s/c(=C\c3ccc(OCC(=O)O)c(OC)c3)c(=O)n2C1c1ccc(OC)cc1` (stereo unspecified), for which the viability runs as follows: under setting [1], 107%; (at 50 µM (top of the series)) 97.1% (inactive). For the same molecule, under setting [4], the minimum viability was determined as 88%.
For the molecule `COC(=O)c1sc(-c2ccc(C(C)(C)C)cc2)cc1NC(=O)CSCC(=O)O`, the viability was 105% under setting [1] and 83.5% (inactive) (at 50 µM (top of the series)). Besides, the minimum viability (at 50 µM, stronger effect = lower value) worked out at 83.5%.
Regarding `Cc1ccc(/C=C2\SC(=S)N(CCCC(=O)Nc3ccccc3C(=O)O)C2=O)cc1`, the viability under setting [1] stood at 127%. Moreover, under “at 50 µM, stronger effect = lower value”, the minimum viability worked out at 63.9%.
For `N=C1/C(=C\c2ccc(-c3cccc(C(=O)O)c3)o2)C(=O)N=C2SC=C(c3ccccc3)N12`, the viability is 103% under setting [1] and 81% (inactive) (at 50 µM (top of the series)). The minimum viability under setting [3] amounted to 80.3%.
In the case of `CC(C)S(=O)(=O)C1=NSC2=NC(=O)/C(=C\c3ccc(OC(=O)c4ccco4)cc3)C(=N)N21`, the viability under setting [1] is 100% and the viability (at 50 µM (top of the series)) was 103% (inactive). The minimum viability under setting [4] is 84.2%.
As for `O=C(O)CN1C(=O)/C(=C\c2cc(Br)ccc2OCc2ccc(F)cc2)SC1=S`, the viability under setting [1] was 91.5% and the viability (at 50 µM (top of the series)) was 97.7% (inactive). Moreover, the minimum viability (at 50 µM, stronger effect = lower value) amounted to 97.7%.
With `Cc1ccccc1N=C1NC(=O)/C(=C/c2cccn2-c2cccc(C(=O)O)c2)S1`, the viability under setting [1] was 90% and the viability (at 50 µM (top of the series)) was 94.2% (inactive). Moreover, the minimum viability under setting [3] stood at 86.3%.
On the same counts, the results for `COc1ccc(O)c(C(=O)c2cc(SCC(=O)O)c3nc4sc5c(c4c(=O)n3c2)CCCC5)c1` are 122%, 96.7% (inactive) and 90.5%.
Turning to `O=C(O)CCN1C(=O)/C(=C\c2cccc(OCC(=O)Nc3ccc(Cl)cc3)c2)SC1=S`, the viability under setting [1] stood at 88%. In addition, the minimum viability (at 50 µM, stronger effect = lower value) is 73.5%.
Turning to `O=C(CCN1C(=O)/C(=C/c2ccco2)SC1=S)Nc1ccc(C(=O)O)c(O)c1`, the viability reads like this: under setting [1], 108%; (at 50 µM (top of the series)) 90.6% (inactive). Further, the minimum viability under setting [3] stood at 83%.
As for `O=C(NCCc1ccccc1)c1ccc2c(=O)[nH]c3c(C(=O)NCC4CCCO4)sc(=S)n3c2c1` (stereo unspecified), the viability under setting [1] came out at 115%. For the same molecule, the minimum viability (at 50 µM, stronger effect = lower value) was found to be 70.9%.

Source of the values: PubChem BioAssay AID2286 (Southern Research Specialized Biocontainment Screening …, 2010).
